Structures can show the parent of a compound that is named as a salt.
How the values were obtained:
MOLM-14 cells = assay: Proliferation assay (spheroid), MOLM-14; format: cell-based; settings: Homo sapiens, 8 days, read-out: spheroid assay_OneTime MOLM-14 IC50
OCI-AML3 cells = assay: Proliferation assay (spheroid), OCI-AML3; format: cell-based, human; settings: Homo sapiens, OCI-AML-3, […], 8 days
Method: (§1) The anti-proliferative effect of menin/MLL protein/protein interaction inhibitor test compounds was assessed inhuman leukemia cell lines. The cell line MOLM-14 harbors a MLL translocation and expresses the MLL fusion protein MLL-AF9, respectively, as well as the wildtype protein from the second allele. OCI-AML3 cells that carry the NPM1c gene mutation were also tested. […] KO-52 was used as a control cell line containing two MLL (KMT2A) wildtype alleles in order to exclude compounds that display general cytotoxic effects.
(§2) KO-52 and OCI-AML3 cell lines were propagated in alpha-MEM (Sigma Aldrich) supplemented with 20% heat-inactivated fetal bovine serum (HyClone), 2 mM L-glutamine (Sigma Aldrich) and 50 μg/ml gentamycin (Gibco).
In order to assess the anti-proliferative effects, 200 MOLM-14 cells, 200 OCI-AML3 cells or 300 KO-52 cells were seeded in 200 μl media per well in 96-well round bottom, ultra-low attachment plates (Costar, catalogue number 7007). Cell seeding numbers were chosen based on growth curves to ensure linear growth throughout the experiment. Test compounds were added at different concentrations and the DMSO content was normalized to 0.3%. Cells were incubated for 8 days at 37° C. and 5% CO2. Spheroid like growth was measured in real-time by live-cell imaging (IncuCyteZOOM, Essenbio, 4× objective) acquiring images at day 8. Confluence (%) as a measure of spheroid size was determined using an integrated analysis tool.
In order to determine the effect of the test compounds over time, the confluence in each well as a measure of spheroid size, was calculated. Confluence of the highest dose of a reference compound was used as baseline for the LC (Low control) and the confluence of DMSO treated cells was used as 0% cytotoxicity (High Control, HC).
HC=High Control: Mean confluence (%) (DMSO treated cells);
Dose-response equation was used for the plot of % Effect vs Log10 compound concentration with a variable slope and fixing the maximum to 100% and the minimum to 0%. 2b) MEIS1 mRNA Expression Assay

KO-52 cells = assay: Proliferation assay (spheroid), KO-52 control cell line; format: cell-based; settings: Homo sapiens, 8 days, read-out: spheroid assay_OneTime KO-52 IC50
Method: as §1, §2
In order to assess the anti-proliferative effects, 200 MOLM-14 cells, 200 OCI-AML3 cells or 300 KO-52 cells were seeded in 200 μl media per well in 96-well round bottom, ultra-low attachment plates (Costar, catalogue number 7007). […] Spheroid like growth was measured in real-time by live-cell imaging (IncuCyteZOOM, Essenbio, 4× objective) acquiring images at day 8. Confluence (%) as a measure of spheroid size was determined using an integrated analysis tool.
In order to determine the effect of the test compounds over time, the confluence in each well as a measure of spheroid size, was calculated. […]

[1] = Metabolic stability in human liver microsomes; format: in vitro ADME; settings: pH 7.4, 0.5 mg/mL microsomes protein, read-out: Human LM Clint
Method: 4) Metabolic Stability in Human/Mouse Liver Microsomes
The objective of this study is to measure in vitro metabolic stability of test compound(s) in human and mouse liver microsomes and provide quantitative information on the rate of metabolic turnover (i.e., determination of the apparent intrinsic clearance of test).
Test items were prepared at a stock concentration of 10 mM in DMSO. For determination of metabolic turnover, a final working solution was prepared by adding 2 μL of 10 mM DMSO stock solution for test compound or positive control compounds to 198 μL of acetonitrile (100 μM final concentration).
Incubations were performed as follows: First, liver microsomes were thawed on ice and a master solution containing liver microsomes in 100 mM PBS (phosphate-buffered saline) at pH 7.4 is prepared. Next, the liver microsomes solution was added to the incubation plates and 10 mM NADPH (Nicotinamide-adenine dinucleotide phosphate) was added (MW: 833.4 g/mol; Roche Diagnostics GmbH1, Germany. Dissolved in phosphate buffer (100 mmol/L, pH 7.4)). […]
All calculations were carried out using Microsoft Excel. The slope value, k, was determined by linear regression of the natural logarithm of the remaining percentage of the parent drug vs. incubation time curve.
The in vitro half-life (in vitro t1/2) was determined from the slope value: […]

[2] = Mouse PK (in vivo T1/2 and oral bioavailability); settings: fasted male CD-1 mice, single IV 0.5 or 1.0 mg/kg; formulating agent: A HP-β-CD, A3 Pyrogen free water
Method: 3) Mouse PK (In Vivo T1/2 and Oral Bioavailability)
In vivo pharmacokinetics (PK) were assessed in fasted male CD-1 mice (age 6-8 weeks) following a single intravenous (IV, 0.5 or 1.0 mg/kg administered at 2.5 ml/kg) or oral (PO, 5 mg/kg administered at 10 ml solution/kg) dose of test article formulated in a 20% (w:vol) HP-β-CD solution or in Pyrogen free water.
Plasma and/or whole blood samples were collected from the dorsal metatarsal vein at desired timepoints via serial capillary microsampling (approx. 0.03 mL) using EDTA as an anticoagulant. Concentrations of compound in the plasma and blood samples were analyzed using a qualified LC-MS/MS method. In silico analysis of main pharmacokinetic parameters was performed using WinNonlin (Phoenix™, version 6.1) or similar software.)

OCI-AML3 tumors = assay: Efficacy study in disseminated OCI-AML3 model; format: in vivo, SCID beige mice
Method: Day 0 is the day of tumor cell implantation and study initiation.
Median survival was determined utilizing Kaplan-Meier survival analysis.

Structure (SMILES) | IC50 (MOLM-14 cells) [nM] | IC50 (OCI-AML3 cells) [nM] | IC50 (KO-52 cells) [µM] | microsomal CLint at 1 μM [1] [µL/min/mg] | In vivo T1/2 (IV) [2] [h] | median days of survival (OCI-AML3 tumors; 30 mg/kg PO daily for 28 days) [days] | median days of survival (OCI-AML3 tumors; 50 mg/kg PO daily for 28 days) [days] | median days of survival (OCI-AML3 tumors; 100 mg/kg PO daily for 28 days) [days]
CCN(C(=O)c1cc(F)ccc1Oc1nncnc1N1CCC2(C1)CN([C@H](CCCNCCOC)C(C)C)C2)C(C)C [Compound 11, (R)-N-ethyl-5-fluoro-N-isopropyl-2-((5-(2-(6-((2-methoxyethyl)amino)-2-methylhexan-3-yl)-2,6-diazaspiro[3.4]octan-6-yl)-1,2,4-triazin-6-yl)oxy)benzamide] | 21 | 210 | 8.38 | 14 |  |  |  | 
CCN(C(=O)c1cc(F)ccc1Oc1nncnc1N1CCC2(C1)CN([C@H](CCCN(C)CCOC)C(C)C)C2)C(C)C [Compound A3, (R)-N-ethyl-5-fluoro-N-isopropyl-2-((5-(2-(6-((2-methoxyethyl) (methyl)amino)-2-methylhexan-3-yl)-2,6-diazaspiro[3.4]octan-6-yl)-1,2,4-triazin-6-yl)oxy) benzamide oxalate] |  | 120 | 7.75 |  | 9.0 | 75.5 | 58.5 | 75
